Laboratory results: the NIST ThermoML archive (doi:10.1021/je7000182)
± gives the expanded uncertainty stated by the source.

How the values were obtained:
[1] = for mass density: 101 kPa, Liquid
[2] = xn = mol fraction of the nth substance listed; conditions: x2 = 0; for mass density: 101 kPa, Liquid

## CC(C)=O [acetone]
[1]; 288.15 K, Pendant drop shape
  surface tension liquid-gas: 24.34 ± 0.31 mN/m
[1]; 288.15 K
  mass density: 795.65 ± 0.34 kg/m3
[1]; 293.15 K
  mass density: 790.04 ± 0.34 kg/m3
[1]; 298.15 K, Pendant drop shape
  surface tension liquid-gas: 23.02 ± 0.31 mN/m
[1]; 298.15 K
  mass density: 784.33 ± 0.35 kg/m3
[1]; 303.15 K
  mass density: 778.57 ± 0.36 kg/m3
[1]; 308.15 K, Pendant drop shape
  surface tension liquid-gas: 21.72 ± 0.3 mN/m
[1]; 308.15 K
  mass density: 772.76 ± 0.36 kg/m3
[1]; 313.15 K
  mass density: 766.91 ± 0.37 kg/m3
[1]; 318.15 K, Pendant drop shape
  surface tension liquid-gas: 20.38 ± 0.29 mN/m
[1]; 318.15 K
  mass density: 760.99 ± 0.38 kg/m3
[1]; 323.15 K
  mass density: 755.02 ± 0.39 kg/m3
[1]; 328.15 K, Pendant drop shape
  surface tension liquid-gas: 19.15 ± 0.29 mN/m
[1]; 328.15 K
  mass density: 748.98 ± 0.39 kg/m3

## Cc1ccccc1 [toluene]
[1]; 288.15 K
  surface tension liquid-gas: 28.9 ± 0.6 mN/m
  mass density: 871.41 ± 0.25 kg/m3
[1]; 293.15 K
  mass density: 866.77 ± 0.26 kg/m3
[1]; 298.15 K
  surface tension liquid-gas: 27.76 ± 0.59 mN/m
  mass density: 862.12 ± 0.26 kg/m3
[1]; 303.15 K
  mass density: 857.46 ± 0.27 kg/m3
[1]; 308.15 K
  surface tension liquid-gas: 26.77 ± 0.57 mN/m
  mass density: 852.78 ± 0.27 kg/m3
[1]; 313.15 K
  mass density: 848.08 ± 0.28 kg/m3
[1]; 318.15 K
  surface tension liquid-gas: 25.72 ± 0.55 mN/m
  mass density: 843.37 ± 0.29 kg/m3
[1]; 323.15 K
  mass density: 838.64 ± 0.29 kg/m3
[1]; 328.15 K
  surface tension liquid-gas: 24.27 ± 0.53 mN/m
  mass density: 833.9 ± 0.3 kg/m3

## Cc1ccccc1 [toluene] + CC(C)=O
[2]; 288.15 K
  surface tension liquid-gas: 28.9 ± 0.6 mN/m
  mass density: 871.41 ± 0.25 kg/m3
[2]; 293.15 K
  mass density: 866.77 ± 0.26 kg/m3
[2]; 298.15 K
  surface tension liquid-gas: 27.76 ± 0.59 mN/m
  mass density: 862.12 ± 0.26 kg/m3
[2]; 303.15 K
  mass density: 857.46 ± 0.27 kg/m3
[2]; 308.15 K
  surface tension liquid-gas: 26.77 ± 0.57 mN/m
  mass density: 852.78 ± 0.27 kg/m3
[2]; 313.15 K
  mass density: 848.08 ± 0.28 kg/m3
[2]; 318.15 K
  surface tension liquid-gas: 25.72 ± 0.55 mN/m
  mass density: 843.37 ± 0.29 kg/m3
[2]; 323.15 K
  mass density: 838.64 ± 0.29 kg/m3
[2]; 328.15 K
  surface tension liquid-gas: 24.27 ± 0.53 mN/m
  mass density: 833.9 ± 0.3 kg/m3

## O [water] + CC(C)=O
[2]; 288.15 K, Pendant drop shape
  surface tension liquid-gas: 73.49 ± 0.65 mN/m
[2]; 298.15 K, Pendant drop shape
  surface tension liquid-gas: 71.98 ± 0.64 mN/m
[2]; 308.15 K, Pendant drop shape
  surface tension liquid-gas: 70.41 ± 0.63 mN/m
[2]; 318.15 K, Pendant drop shape
  surface tension liquid-gas: 68.78 ± 0.61 mN/m
[2]; 323.15 K
  mass density: 988.01 ± 0.15 kg/m3
[2]; 328.15 K, Pendant drop shape
  surface tension liquid-gas: 67.09 ± 0.6 mN/m
[2]; 328.15 K
  mass density: 985.69 ± 0.15 kg/m3
